Results as given in US12384765B2, “Catecholamine prodrugs for use in the treatment of Parkinson's Disease” (H. Lundbeck A/S, priority 2019, dated 2025).
“Also recorded” adds a separate entry of the source.

Assays:
[1] = Conversion of compounds in human plasma; type: in vitro ADME; conditions: 1 μM test compound, 37° C., 0-6 hr; nd: not detected
Protocol: Frozen human plasma was thawed and then centrifuged at 3200×g for 5 min to remove debris. The pH value of the supernatant was then measured and adjusted to 7.4±0.1 by adding 1% phosphoric acid or 1 N sodium hydroxide. 2 μL of dosing solution (50 μM for test compounds and 100 μM for positive control (propantheline bromide)) was mixed with 98 μL of blank plasma to achieve 1 μM test compound and 2 μM positive control of final concentration. The mixture was incubated, and samples were withdrawn from the incubations at the pre-determined time points of 0, 0.5, 1, 2, 4 and 6 hr (in duplicate) at 37° C. in water bath. At each corresponding time point 10 μL inhibitor and 20 μL ascorbic acid and 2 μL formic acid (20%) are added, and then added 400 μL of “stop solution” (200 ng/mL tolbutamide plus 200 ng/mL labetalol in 50% ACN/MeOH) to precipitate protein. The substance was mixed thoroughly and thereafter Centrifugated at 4,000 rpm for 20 minutes. Then an aliquot of supernatant (50 μL) was transferred from each well to a sample plate and mixed with 100 μL ultrapure water. The plate was shaked at 800 rpm for about 10 minutes before submitting to LC-MS/MS analysis.
(§1) Mass spectrometer (LC-MS/MS) Shimadzu LC 20-AD Shimadzu UHPLC API 4000. Analytical column ACQUITY UPLC® BEH Phenyl 1.7 μm 2.1×50 mm. Mobile phase A: 0.1% Formic Acid in Water. Mobile phase B: 0.1% Formic Acid in Acetonitrile. […] Flow rate 0.7 mL/min.

human hepatocytes = experiment: Conversion of compounds in human hepatocytes; type: in vitro ADME; conditions: 1 μM compound, 37° C.; nd: not detected
Protocol: Incubations were conducted in 96-well plates at 1 μM compound concentration in duplicate. The hepatocyte cell concentration was 0.5×10^6 cells/mL used for final incubation at 37° C. in an incubator of 5% CO2 95% relative humidity. The medium control samples were included at 0 and 60 minutes in the absence of cells. The total organic concentration was 1% (DMSO 0.1%) in the final incubation. The controls, (7-ethoxycoumarin and 7-hydroxycoumarin) was incubated parallel at 3 μM. 2 μL of dosing solution (50 μM for test compounds and 100 μM for positive control) was mixed with 98 μL of 100 mM PBS to achieve 1 μM test compound and 2 μM positive control of final concentration. The mixture was incubated, and samples were withdrawn from the incubations at pre-determined time points of 0, 0.5, 1, 2, 4 and 6 hr (in duplicate) at 37° C. in water bath. To each sample, 10 μL inhibitor and 20 μL ascorbic acid and 2 μL formic acid (20%) were added followed by 400 μL of stop solution (200 ng/mL tolbutamide plus 200 ng/mL labetalol in 50% ACN/MeOH). The substance was mixed thoroughly and thereafter centrifuged at 4,000 rpm for 20 minutes. An aliquot of supernatant (50 μL) from each well were transferred to a sample plate and mixed with 100 μL ultrapure water. The plate was shaked at 800 rpm for about 10 minutes before submitting to LC-MS/MS analysis.
as §1

[2] = PK experiments in rats, plasma compound (I) after oral dosing; type: in vivo, Han Wistar rats; conditions: oral dosing, rats
Protocol: Plasma was placed on water-ice following collection. Final storage at approximately −70° C.
Mobile phase B: Acetonitrile. […] Flow rate 0.5 mL/min.
The rats had unrestricted access to the diet.
Mobile phase B: Acetonitrile+0.2% formic acid. […] Flow rate 0.3 mL/min.
The rats received a standard laboratory diet Teklad 2014C. The rats had unrestricted access to the diet.

human 5-HT2B receptor = human 5-HT2B receptor (Homo sapiens (Human), UniProt P41595); experiment: 5-HT2B agonist activity assay (IP1 production, HTRF); type: cell-based; conditions: read-out: 5-HT2B agonist activity, percent of control response
Sequence of human 5-HT2B receptor (P41595 whole entry): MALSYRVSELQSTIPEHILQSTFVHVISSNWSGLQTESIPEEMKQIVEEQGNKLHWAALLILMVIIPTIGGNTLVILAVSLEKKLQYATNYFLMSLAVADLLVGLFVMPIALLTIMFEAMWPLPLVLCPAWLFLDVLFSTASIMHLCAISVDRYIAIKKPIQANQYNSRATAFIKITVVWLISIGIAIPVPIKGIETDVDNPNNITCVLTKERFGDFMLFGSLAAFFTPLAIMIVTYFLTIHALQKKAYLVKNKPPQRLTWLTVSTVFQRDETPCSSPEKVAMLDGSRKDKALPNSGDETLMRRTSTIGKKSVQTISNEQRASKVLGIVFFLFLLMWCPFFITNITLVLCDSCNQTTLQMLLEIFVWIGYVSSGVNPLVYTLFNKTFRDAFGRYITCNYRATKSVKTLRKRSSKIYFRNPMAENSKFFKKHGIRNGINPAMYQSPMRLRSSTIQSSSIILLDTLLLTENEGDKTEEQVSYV
Protocol: Evaluation of the agonist activity of compounds (I), (Ia), (Ib), (Ic), (Ia-iab), compound (2), compound (9), compound (15), compound (27), A2, A3, and A7 at the human 5-HT2B receptor was performed by Eurofins/Cerep (France) measuring the compound effects on inositol monophosphate (IP1) production using the HTRF detection method. Briefly, the human 5-HT2B receptor was expressed in transfected CHO cells. The cells were suspended in a buffer containing 10 mM Hepes/NaOH (pH 7.4), 4.2 mM KCl, 146 mM NaCl, 1 mM CaCl2, 0.5 mM MgCl2, 5.5 mM glucose and 50 mM LiCl, then distributed in microplates at a density of 4100 cells/well and incubated for 30 minutes at 37° C. in the presence of buffer (basal control), test compound or reference agonist. For stimulated control measurement, separate assay wells contained 1 μM 5-HT. Following incubation, the cells were lysed and the fluorescence acceptor (fluorophen D2-labeled IP1) and fluorescence donor (anti-IP1 antibody labeled with europium cryptate) were added. After 60 minutes at room temperature, the fluorescence transfer was measured at lambda(Ex) 337 nm and lambda(Em) 620 and 665 nm using a microplate reader (Rubystar, BMG). The IP1 concentration was determined by dividing the signal measured at 665 nm by that measured at 620 nm (ratio). The results were expressed as a percent of the control response to 1 μM 5-HT. The standard reference agonist was 5-HT, which was tested in each experiment at several concentrations to generate a concentration-response curve from which its EC50 value is calculated as described above for dopamine functional assays.

male CD rats = experiment: Rat locomotor activity (hyperactivity) assay, open field; type: in vivo; conditions: (Id-ia) 10 to 300 μg/kg p.o.; apomorphine 3 mg/kg s.c.; pramipexole 0.3 mg/kg s.c.
Protocol: In total, 206 male CD rats (Charles River, Germany) weighing 200-250 grams (165-190 grams upon arrival) were used in the study. Animals were housed at a standard temperature (22±1° C.) and in a light-controlled environment (lights on from 7 am to 8 pm) with ad libitum access to food and water. The experiment described below was performed in accordance with the standard operating procedures of Charles River Discovery Research Services Finland Ltd. and in accordance with the national Animal Experiment Board of Finland (Elainkoelautakunta, ELLA) authority on animal testing.
The test device is a square Plexiglass-arena (measuring 40×40×40 cm), in which the movement paths of the rats are recorded by an activity monitor (Med. Associates Inc.). Before the test period is initiated, rats are habituated to their test cage for 60 minutes. Upon completion of habituation, animals were treated with either compound or vehicle and placed back into the open field apparatus. The main test parameter measured is ambulatory distance (recorded in 5 minute segments). Overall time of measurement after receiving initial treatment was 360 minutes. Total follow up period in the study was 420 minutes, including 60 minutes of habituation.
Blood samples were taken and processed and analyzed as described under PK experiments in rats in Example 3.

SMILES	Observed metabolite, Incubation in human plasma [1]	Observed metabolite, Incubation in human hepatocytes (human hepatocytes)	Observed metabolite, In vivo PK study after oral dosing (rats) [2]	activity at 10 µM (human 5-HT2B receptor)	effect on locomotor activity (male CD rats)
CCCN1CCC[C@@H]2Cc3c(ccc(O[C@@H]4O[C@H](C(=O)O)[C@@H](O)[C@H](O)[C@H]4O)c3O[C@@H]3O[C@H](C(=O)O)[C@@H](O)[C@H](O)[C@H]3O)C[C@H]21 [(Id-iab), (2S,2′S,3S,3′S,4S,4′S,5R,5′R,6S,6′S)-6,6′-(((4aR,10aR)-1-propyl-1,2,3,4,4a,5,10,10a-octahydrobenzo[g]quinoline-6,7-diyl)bis(oxy))bis(3,4,5-trihydroxytetrahydro-2H-pyran-2-carboxylic acid)]	Compound (I)	Compound (I)	Compound (I)	–	–
CCCN1CCC[C@@H]2Cc3c(ccc(OCc4ccccc4)c3O[C@@H]3O[C@H](C(=O)OC)[C@@H](OC(C)=O)[C@H](OC(C)=O)[C@H]3OC(C)=O)C[C@H]21 [Compound (1), (2S,3R,4S,5S,6S)-2-(((4aR,10aR)-7-(benzyloxy)-1-propyl-1,2,3,4,4a,5,10,10a-octahydrobenzo[g]quinolin-6-yl)oxy)-6-(methoxycarbonyl)tetrahydro-2H-pyran-3,4,5-triyl triacetate]	Compound A2,; also recorded: compound (2)	Compound A2,; also recorded: Compound (4)	–	–	–
CCCN1CCC[C@@H]2Cc3c(ccc(OCc4ccccc4)c3O[C@@H]3O[C@H](C(=O)OCc4ccccc4)[C@@H](OC(=O)C(C)(C)C)[C@H](OC(=O)C(C)(C)C)[C@H]3OC(=O)C(C)(C)C)C[C@H]21 [Compound (5), (2S,3R,4S,5S,6S)-2-(((4aR,10aR)-7-(benzyloxy)-1-propyl-1,2,3,4,4a,5,10,10a-octahydrobenzo[g]quinolin-6-yl)oxy)-6-((benzyloxy)carbonyl)tetrahydro-2H-pyran-3,4,5-triyl tris(2,2-dimethylpropanoate)]	Compound (24)	Compound (24)	–	–	–
CCCN1CCC[C@@H]2Cc3c(ccc(OCc4ccccc4)c3O[C@@H]3O[C@H](C(=O)OCC)[C@@H](OC(C)=O)[C@H](OC(C)=O)[C@H]3OC(C)=O)C[C@H]21 [Compound (10), (2S,3R,4S,5S,6S)-2-(((4aR,10aR)-7-(benzyloxy)-1-propyl-1,2,3,4,4a,5,10,10a-octahydrobenzo[g]quinolin-6-yl)oxy)-6-(ethoxycarbonyl)tetrahydro-2H-pyran-3,4,5-triyl triacetate]	Compound A2,; also recorded: Compound (4)	Compound A2,; also recorded: Compound (4)	–	–	–
CCCN1CCC[C@@H]2Cc3c(ccc(OCc4ccccc4)c3O[C@@H]3O[C@H](C(=O)OCC)[C@@H](OC(=O)C(C)(C)C)[C@H](OC(=O)C(C)(C)C)[C@H]3OC(=O)C(C)(C)C)C[C@H]21 [Compound (13), (2S,3R,4S,5S,6S)-2-(((4aR,10aR)-7-(benzyloxy)-1-propyl-1,2,3,4,4a,5,10,10a-octahydrobenzo[g]quinolin-6-yl)oxy)-6-(ethoxycarbonyl)tetrahydro-2H-pyran-3,4,5-triyl tris(2,2-dimethylpropanoate)]	–	Compound (14)	–	–	–
CCCN1CCC[C@@H]2Cc3c(ccc(OC)c3O[C@@H]3O[C@H](C(=O)OCc4ccccc4)[C@@H](OC(=O)C(C)(C)C)[C@H](OC(=O)C(C)(C)C)[C@H]3OC(=O)C(C)(C)C)C[C@H]21 [Compound (20), (2S,3S,4S,5R,6S)-2-((benzyloxy)carbonyl)-6-(((4aR,10aR)-7-methoxy-1-propyl-1,2,3,4,4a,5,10,10a-octahydrobenzo[g]quinolin-6-yl)oxy)tetrahydro-2H-pyran-3,4,5-triyltris(2,2-dimethylpropanoate)]	Compound (21)	Compound (21)	–	–	–
CCCN1CCC[C@@H]2Cc3c(ccc(OC)c3O[C@@H]3O[C@H](C(=O)OC)[C@@H](OC(=O)C(C)(C)C)[C@H](OC(=O)C(C)(C)C)[C@H]3OC(=O)C(C)(C)C)C[C@H]21 [Compound (22), (2S,3S,4S,5R,6S)-2-((methoxy)carbonyl)-6-(((4aR,10aR)-7-methoxy-1-propyl-1,2,3,4,4a,5,10,10a-octahydrobenzo[g]quinolin-6-yl)oxy)tetrahydro-2H-pyran-3,4,5-triyl tris(2,2-dimethylpropanoate)]	Compound (21)	Compound (21)	–	–	–
CCCN1CCC[C@@H]2Cc3c(ccc(OCc4ccccc4)c3O[C@@H]3O[C@H](C(=O)OC)[C@@H](OC(=O)C(C)(C)C)[C@H](OC(=O)C(C)(C)C)[C@H]3OC(=O)C(C)(C)C)C[C@H]21 [Compound (25), (2S,3R,4S,5S,6S)-2-(((4aR,10aR)-7-(benzyloxy)-1-propyl-1,2,3,4,4a,5,10,10a-octahydrobenzo[g]quinolin-6-yl)oxy)-6-(methoxycarbonyl)tetrahydro-2H-pyran-3,4,5-triyl tris(2,2-dimethylpropanoate)]	Compound A2,; also recorded: Compound (24)	Compound A2,; also recorded: Compound (24)	–	–	–
CCCN1CCC[C@@H]2Cc3c(ccc(OC)c3O)C[C@H]21 [Compound A7, (4aR,10aR)-7-methoxy-1-propyl-1,2,3,4,4a,5,10,10a-octahydrobenzo[g]quinolin-6-ol]	–	Compound (I)	Compound (I)	27%	–
CCCN[C@H]1CCc2nc(N)sc2C1 [Pramipexole, pramipexole, reference compound]	–	–	–	–	increase in activity
